Assays:
UCH-L1 = molecular target: T1, UCH-L1 (Homo sapiens, UniProt P09936); experiment: UCH-L1 activity assay (Ub-AMC); type: biochemical; conditions: 400 nM Ub-AMC, 2.5 nM enzyme; compounds tested from 200 µM to 91 nM; unit inferred; read-out: Inhibition of cysteine protease activities: Uch-L1
T1 sequence (P09936 1-223): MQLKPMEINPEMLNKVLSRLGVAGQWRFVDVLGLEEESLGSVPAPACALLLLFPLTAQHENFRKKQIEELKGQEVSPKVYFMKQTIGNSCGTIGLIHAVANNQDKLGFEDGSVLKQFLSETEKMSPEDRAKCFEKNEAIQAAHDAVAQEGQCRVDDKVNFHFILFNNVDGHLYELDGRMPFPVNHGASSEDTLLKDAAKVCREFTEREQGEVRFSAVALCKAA
Protocol: UCH-L1 was diluted in USP buffer (50 mM Tris HCl; 0.5 mM EDTA; 5 mM DTT; 0.01% Triton X-100; Bovine Serum Albumin 0.05 mg.ml^-1 pH7.6). Compounds stocks (100 mM) were stored at -20°C in DMSO. Compounds were tested at different concentrations: from 200 µM to 91 nM. Reactions were performed as duplicates in Black LJL 96 well plates (HE microplates; Molecular Devices; 20 µl final reaction volume). The substrate concentration for UCH-L1 was 400 nM Ub-AMC (Boston Biochem). The concentration of the enzyme (UCH-L1) in specificity assays was 2.5 nM. The concentrations were determined in order to perform specificity assays under initial velocities at fixed substrate concentration. Compounds were pre-incubated with enzymes for 30 minutes at 25°C. Reactions were initiated by addition of substrate to the plates containing the enzymes (+/- compounds) diluted in assay buffer. Reactions were incubated for 60 minutes at 37°C. Reactions were stopped by adding acetic acid (100 mM final). Readings were performed on a Pherastar Fluorescent Reader (BMG). λ […]. Data (mean values +/- standard deviation) were analyzed as % of control (no compound) and plotted as percentage versus the Log of the compound concentration using GraphPad (Prism). Data were fitted to a sigmoidal model (variable slope).

USP5 = molecular target: T2, USP5 (Homo sapiens, UniProt P45974); experiment: USP5 activity assay (Ub-AMC); type: biochemical; conditions: 300 nM Ub-AMC, 300 pM enzyme; compounds tested from 200 µM to 91 nM; unit inferred; read-out: Inhibition of cysteine protease activities: USP 5
T2 sequence (P45974 1-858): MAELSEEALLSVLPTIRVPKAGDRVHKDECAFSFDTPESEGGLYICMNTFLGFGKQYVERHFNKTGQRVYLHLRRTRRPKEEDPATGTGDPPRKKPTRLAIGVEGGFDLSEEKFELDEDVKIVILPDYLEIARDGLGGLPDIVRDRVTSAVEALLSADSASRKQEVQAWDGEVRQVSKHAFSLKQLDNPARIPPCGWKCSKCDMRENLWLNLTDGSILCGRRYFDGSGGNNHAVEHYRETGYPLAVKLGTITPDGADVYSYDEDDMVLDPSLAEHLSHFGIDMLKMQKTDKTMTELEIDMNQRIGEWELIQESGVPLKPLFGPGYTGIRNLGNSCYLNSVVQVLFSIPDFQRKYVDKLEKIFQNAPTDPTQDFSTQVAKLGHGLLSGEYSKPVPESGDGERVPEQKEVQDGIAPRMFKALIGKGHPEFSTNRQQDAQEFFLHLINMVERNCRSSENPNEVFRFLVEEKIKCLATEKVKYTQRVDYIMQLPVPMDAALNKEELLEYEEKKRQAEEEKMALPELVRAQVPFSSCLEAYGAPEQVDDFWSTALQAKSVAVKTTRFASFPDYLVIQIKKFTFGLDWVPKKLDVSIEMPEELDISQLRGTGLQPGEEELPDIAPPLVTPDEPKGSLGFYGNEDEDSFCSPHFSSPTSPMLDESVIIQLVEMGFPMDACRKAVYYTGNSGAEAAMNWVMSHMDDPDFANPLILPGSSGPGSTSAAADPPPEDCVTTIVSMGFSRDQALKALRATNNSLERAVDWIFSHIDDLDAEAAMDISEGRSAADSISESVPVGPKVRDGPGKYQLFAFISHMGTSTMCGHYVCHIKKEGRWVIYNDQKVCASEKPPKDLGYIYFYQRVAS
Protocol: USP5 was diluted in USP buffer (50 mM Tris HCl; 0.5 mM EDTA; 5 mM DTT; 0.01% Triton X-100; Bovine Serum Albumin 0.05 mg.ml^-1 pH 7.6). Compounds stocks (100 mM) were stored at -20°C in DMSO. Compounds were tested at different concentrations: from 200 µM to 91 nM. Reactions were performed as duplicates in Black LJL 96 well plates (HE microplates; Molecular Devices; 20 µl final reaction volume). The substrate concentration for USP5 was 300 nM Ub-AMC (Boston Biochem). The concentrations of the enzyme (USP5) in specificity assays was 300 pM. The concentrations were determined in order to perform specificity assays under initial velocities at fixed substrate concentration. Compounds were pre-incubated with enzymes for 30 minutes at 25°C. Reactions were initiated by addition of substrate to the plates containing the enzymes (+/- compounds) diluted in assay buffer. Reactions were incubated for 60 minutes at 37°C. Reactions were stopped by adding acetic acid (100 mM final). Readings were performed on a Pherastar Fluorescent Reader (BMG). λ Emission 380 nm; λ Excitation = 460 nm. Data (mean values +/- standard deviation) were analyzed as % of control (no compound) and plotted as percentage versus the Log of the compound concentration using GraphPad (Prism). Data were fitted to a sigmoidal model (variable slope).

SMILES | IC50 (UCH-L1) | IC50 (USP5)
CC(=O)C1=C(O)C(=O)N(CCc2ccc(Cl)cc2)C1c1ccc(Br)cc1 (centres unmarked) [Example 25, 4-acetyl-5-(4-bromo-phenyl)-1-[2-(4-chloro-phenyl)-ethyl]-3-hydroxy-1,5-dihydro-pyrrol-2-one] | > 200 µM | > 200 µM
CC(=O)C1=C(O)C(=O)N(CCc2ccc(Br)cc2)C1c1ccc(Br)cc1 (centres unmarked) [Example 26, 4-acetyl-5-(4-bromo-phenyl)-1-[2-(4-bromo-phenyl)-ethyl]-3-hydroxy-1,5-dihydro-pyrrol-2-one] | > 200 µM | > 200 µM
CC(=O)C1=C(O)C(=O)N(CCc2ccc(Cl)c(Cl)c2)C1c1ccc(Br)cc1 (centres unmarked) [Example 28, 4-acetyl-5-(4-bromo-phenyl)-1-[2-(3,4-dichloro-phenyl)-ethyl]-3-hydroxy-1,5-dihydro-pyrrol-2-one] | > 200 µM | > 200 µM
COc1cccc(CCN2C(=O)C(O)=C(C(C)=O)C2c2ccc(Br)cc2)c1 (centres unmarked) [Example 30, 4-acetyl-5-(4-bromo-phenyl)-3-hydroxy-1-[2-(3-methoxyphenyl)-ethyl]-1,5-dihydro-pyrrol-2-one] | > 200 µM | > 200 µM
COc1ccc(CCN2C(=O)C(O)=C(C(C)=O)C2c2ccc(Br)cc2)cc1 (centres unmarked) [Example 32, 4-acetyl-5-(4-bromo-phenyl)-3-hydroxy-1-[2-(4-methoxyphenyl)-ethyl]-1,5-dihydro-pyrrol-2-one] | > 200 µM | > 200 µM
CC(=O)C1=C(O)C(=O)N(CCc2ccc(F)cc2)C1c1ccc(Br)cc1 (centres unmarked) [Example 33, 4-acetyl-5-(4-bromo-phenyl)-3-hydroxy-1-[2-(4-fluorophenyl)-ethyl]-1,5-dihydro-pyrrol-2-one] | > 200 µM | > 200 µM
CCOc1ccc(CCN2C(=O)C(O)=C(C(C)=O)C2c2ccc(Br)cc2)cc1 (centres unmarked) [Example 34, 4-acetyl-5-(4-bromo-phenyl)-3-hydroxy-1-[2-(4-ethoxy-phenyl)-ethyl]-1,5-dihydro-pyrrol-2-one] | > 200 µM | > 200 µM
CC(=O)C1=C(O)C(=O)N(CCc2ccccc2)C1c1ccc2c(c1)OCO2 (centres unmarked) [Example 37, 4-acetyl-5-benzo[1,3]dioxol-5-yl-3-hydroxy-1-phenethyl-1,5-dihydro-pyrrol-2-one] | > 200 µM | > 200 µM
CC(=O)C1=C(O)C(=O)N(CCc2ccccc2)C1c1ccc(Br)c(Br)c1 (centres unmarked) [Example 41, 4-acetyl-5-(3,4-dibromo-phenyl)-3-hydroxy-1-phenethyl-1,5-dihydro-pyrrol-2-one] | > 200 µM | > 200 µM
CC(=O)C1=C(O)C(=O)N(CCc2ccccc2)C1c1cccnc1Cl (centres unmarked) [Example 42, 4-acetyl-5-(2-chloro-pyridin-3-yl)-3-hydroxy-1-phenethyl-1,5-dihydro-pyrrol-2-one] | > 200 µM | > 200 µM
CC(=O)C1=C(O)C(=O)N(CCc2ccc(Br)cc2)C1c1ccc(Cl)cc1 (centres unmarked) [Example 45, 4-Acetyl-5-(4-chlorophenyl)-1-[2-(4-bromophenyl)-ethyl]-3-hydroxy-1,5-dihydro-pyrrol-2-one] | > 200 µM | > 200 µM
CC(=O)C1=C(O)C(=O)N(CCc2ccc(Cl)cc2)C1c1ccc(Cl)cc1 (centres unmarked) [Example 46, 4-Acetyl-5-(4-chlorophenyl)-1-[2-(4-chlorophenyl)-ethyl]-3-hydroxy-1,5-dihydro-pyrrol-2-one] | > 200 µM | > 200 µM
CC(=O)C1=C(O)C(=O)N(CCc2ccc(Cl)cc2Cl)C1c1ccc(Br)cc1 (centres unmarked) [Example 47, 4-Acetyl-5-(4-bromophenyl)-1-[2-(2,4-dichlorophenyl)-ethyl]-3-hydroxy-1,5-dihydro-pyrrol-2-one] | > 200 µM | > 200 µM

From patent EP2208725A1, “Novel specific inhibitors of ubiquitin specific protease 7, the pharmaceutical compositions thereof and their therapeutic applications” (Hybrigenics S.A., priority 2009, dated 2010)
